Drawing on patent US20170129916A1, “NOVEL BETULINIC PROLINE IMIDAZOLE DERIVATIVES AS HIV INHIBITORS” (HETERO RESEARCH FOUNDATION, priority 2014, published 2017), this text covers IC50, AUC(0-t) and Cmax for 11 molecules.

For series [1], the system named is HIV-1 strains, for e.g., 92HT599. The experiment in a line: Antiviral activity: p24 estimation in MT-2 cells infected with HIV-1. The following applies: Human immunodeficiency virus 1, MT2; MT-2 cells infected with HIV-1, p24, ~96 hours; read-out: Antiviral activity IC50 (nM) Efficacy IC50. It counts as cell-based. On the procedure:
MT-2 cells were infected with required number of TCID50's of HIV-1 strains, for e.g., 92HT599. The infected cells were plated at the concentration of 30, 000 cells per well in a 96 well plate. Test compound was added to the 96 well plate with the final concentration of DMSO (vehicle—not more than 1%). The plates are then incubated in a CO2 incubator for ˜96 hours (˜4 days) for viral infection. At the end of incubation period an aliquot from each well was taken for p24 estimation. The quantitation of p24 is an estimated index for antiviral activity of the compound. Percent inhibition was calculated with reference to control values (vehicle controls).
p-24 estimation was carried out using Advance biosciences kit as per the procedure detailed by supplier.

Series [2] in a line: Single dose oral pharmacokinetic study. Format: in vivo. To be noted: mouse, mice, 30 mg/kg, plasma; for AUC(0-t): read-out: Mice oral PK @30 mg/kg AUC 0-t; for Cmax: read-out: Mice oral PK @30 mg/kg Cmax. On the procedure: The test item was administered through oral route to animals (rat/mice) at 30 mg/kg dose in a suitable vehicle at 10 ml/kg dose volume. Blood samples (˜50 uL at each time point) were collected from retro-orbital plexus using K3 EDTA as anticoagulant in eppend; orf tubes at defined time intervals under light ether anesthesia. The samples were centrifuged at 3500×g to separate plasma and stored at −80° C. until analysis.
Sample analysis: Test samples were analyzed using LC-MS-MS after developing fit-for-purpose method for each of test compound.

Molecules are shown by their SMILES.

In general, IC50 refers to the midpoint of a concentration-inhibition curve. Take `C=C(C)[C@@H]1CC[C@]2(C(=O)N3C[C@H](OCCOC)C[C@H]3c3nc(-c4cccnc4)c[nH]3)CC[C@]3(C)[C@H](CC[C@@H]4[C@@]5(C)CC[C@H](OC(=O)[C@H]6C[C@@H](C(=O)O)C6(C)C)C(C)(C)[C@@H]5CC[C@]43C)[C@@H]12` [Compound 10, (1R,3S)-3-((((1R,3aS,5aR,5bR,7aR,9S,11bR,11bR,13aR,13bR)-3a-((2S,4R)-4-(2-methoxyethoxy)-2-(4-(pyridin-3-yl)-1H-imidazol-2-yl)pyrrolidine-1-carbonyl)-5a,5b,8,8,11a-pentamethyl-1-(prop-1-en-2-yl)icosahydro-1H-cyclopenta[a]chrysen-9-yl)oxy)carbonyl)-2,2-dimethylcyclobutane-1-carboxylic acid]: in series [1], the IC50 was 2.82 nM. Also, in series [2], the AUC(0-t) came to 301 µg·h/mL and the Cmax turned out to be 17.9 µg/mL.
For `C=C(C)[C@@H]1CC[C@]2(C(=O)N3CCC[C@H]3c3nnc(-c4ccccc4)o3)CC[C@]3(C)[C@H](CC[C@@H]4[C@@]5(C)CC[C@H](OC(=O)[C@H]6C[C@@H](C(=O)O)C6(C)C)C(C)(C)[C@@H]5CC[C@]43C)[C@@H]12` [Compound 11, (1R,3S)-2,2-dimethyl-3-((((1R,3aS,5aR,5bR,7aR,9S,11aR,11bR,13aR,13bR)-5a,5b,8,8,11a-pentamethyl-3a-((S)-2-(5-phenyl-1,3,4-oxadiazol-2-yl)pyrrolidine-1-carbonyl)-1-(prop-1-en-2-yl)icosahydro-1H-cyclopenta[a]chrysen-9-yl)oxy)carbonyl)cyclobutane-1-carboxylic acid] the same measures were 5.96 nM, 403 µg·h/mL and 16.3 µg/mL.
Taken in the same sequence, the figures for `C=C(C)[C@@H]1CC[C@]2(C(=O)N3CCC[C@H]3c3nc(C(C)(C)C)co3)CC[C@]3(C)[C@H](CC[C@@H]4[C@@]5(C)CC[C@H](OC(=O)[C@H]6C[C@@H](C(=O)O)C6(C)C)C(C)(C)[C@@H]5CC[C@]43C)[C@@H]12` [Compound 12, (1R,3S)-3-((((1R,3aS,5aR,5bR,7aR,9S,11aR,11bR,13aR,13bR)-3a-((S)-2-(4-(tert-butyl)oxazol-2-yl)pyrrolidine-1-carbonyl)-5a,5b,8,8,11a-pentamethyl-1-(prop-1-en-2-yl)icosahydro-1H-cyclopenta[a]chrysen-9-yl)oxy)carbonyl)-2,2-dimethylcyclobutane-1-carboxylic acid] were 139 nM, 395 µg·h/mL and 13.2 µg/mL.
With `C=C(C)[C@@H]1CC[C@]2(C(=O)N3CCC[C@H]3c3nc(C(C)C)c[nH]3)CC[C@]3(C)[C@H](CC[C@@H]4[C@@]5(C)CC[C@H](OC(=O)[C@H]6C[C@@H](C(=O)O)C6(C)C)C(C)(C)[C@@H]5CC[C@]43C)[C@@H]12` [Compound 14, (1R,3S)-3-((((1R,3aS,5aR,5bR,7aR,9S,11aR,11bR,13aR,13bR)-3a-((S)-2-(4-isopropyl-1H-imidazol-2-yl)pyrrolidine-1-carbonyl)-5a,5b,8,8,11a-pentamethyl-1-(prop-1-en-2-yl)icosahydro-1H-cyclopenta[a]chrysen-9-yl)oxy)carbonyl)-2,2-dimethylcyclobutane-1-carboxylic acid], the IC50 in series [1] is 0.138 nM. Also, in series [2], the AUC(0-t) was found to be 437 µg·h/mL and the Cmax was determined as 19.6 µg/mL.
With `C=C(C)[C@@H]1CC[C@]2(C(=O)N3CCC[C@H]3c3ncc(-c4ccccc4)o3)CC[C@]3(C)[C@H](CC[C@@H]4[C@@]5(C)CC[C@H](OC(=O)[C@H]6C[C@@H](C(=O)O)C6(C)C)C(C)(C)[C@@H]5CC[C@]43C)[C@@H]12` [Compound 15, (1R,3S)-2,2-dimethyl-3-((((1R,3aS,5aR,5bR,7aR,9S,11aR,11bR,13aR,13bR)-5a,5b,8,8,11a-pentamethyl-3a-((S)-2-(5-phenyloxazol-2-yl)pyrrolidine-1-carbonyl)-1-(prop-1-en-2-yl)icosahydro-1H-cyclopenta[a]chrysen-9-yl)oxy)carbonyl)cyclobutane-1-carboxylic acid], the IC50 in series [1] is 124 nM. Further, in series [2], the AUC(0-t) was determined as 208 µg·h/mL and the Cmax came to 6.51 µg/mL.
Taken in the same sequence, the figures for `C=C(C)[C@@H]1CC[C@]2(C(=O)N3CCC[C@H]3c3ncc(C(C)(C)C)o3)CC[C@]3(C)[C@H](CC[C@@H]4[C@@]5(C)CC[C@H](OC(=O)[C@H]6C[C@@H](C(=O)O)C6(C)C)C(C)(C)[C@@H]5CC[C@]43C)[C@@H]12` [Compound 16, (1R,3S)-3-((((1R,3aS,5aR,5bR,7aR,9S,11aR,11bR,13aR,13bR)-3a-((S)-2-(5-(tert-butyl)oxazol-2-yl)pyrrolidine-1-carbonyl)-5a,5b,8,8,11a-pentamethyl-1-(prop-1-en-2-yl)icosahydro-1H-cyclopenta[a]chrysen-9-yl)oxy)carbonyl)-2,2-dimethylcyclobutane-1-carboxylic acid] were 103 nM, 229 µg·h/mL and 7.89 µg/mL.
Taken in the same sequence, the figures for `C=C(C)[C@@H]1CC[C@]2(C(=O)N3CCC[C@H]3c3nc(-c4ccccc4)co3)CC[C@]3(C)[C@H](CC[C@@H]4[C@@]5(C)CC[C@H](OC(=O)[C@H]6C[C@@H](C(=O)O)C6(C)C)C(C)(C)[C@@H]5CC[C@]43C)[C@@H]12` [Compound 17, (1R,3S)-2,2-dimethyl-3-((((1R,3aS,5aR,5bR,7aR,9S,11aR,11bR,13aR,13bR)-5a,5b,8,8,11a-pentamethyl-3a-((S)-2-(4-phenyloxazol-2-yl)pyrrolidine-1-carbonyl)-1-(prop-1-en-2-yl)icosahydro-1H-cyclopenta[a]chrysen-9-yl)oxy)carbonyl)cyclobutane-1-carboxylic acid] were 58.6 nM, 219 µg·h/mL and 7.09 µg/mL.
In the case of `C=C(C)[C@@H]1CC[C@]2(C(=O)N3CCC[C@H]3c3nc(C(C)(C)C)c[nH]3)CC[C@]3(C)[C@H](CC[C@@H]4[C@@]5(C)CC[C@H](OC(=O)[C@H]6C[C@@H](C(=O)O)C6(C)C)C(C)(C)[C@@H]5CC[C@]43C)[C@@H]12` [Compound 18, (1R,3S)-3-((((1R,3aS,5aR,5bR,7aR,9S,11aR,11bR,13aR,13bR)-3a-((S)-2-(4-(tert-butyl)-1H-imidazol-2-yl)pyrrolidine-1-carbonyl)-5a,5b,8,8,11a-pentamethyl-1-(prop-1-en-2-yl)icosahydro-1H-cyclopenta[a]chrysen-9-yl)oxy)carbonyl)-2,2-dimethylcyclobutane-1-carboxylic acid], the IC50 in series [1] was 35.8 nM. For the same molecule, in series [2], the AUC(0-t) is 409 µg·h/mL and the Cmax came out at 16.4 µg/mL.
Turning to `C=C(C)[C@@H]1CC[C@]2(C(=O)N3CCC[C@H]3c3ncc(-c4ccccc4)[nH]3)CC[C@]3(C)[C@H](CC[C@@H]4[C@@]5(C)CC[C@H](OC(=O)C[C@H]6C[C@@H](C(=O)O)C6(C)C)C(C)(C)[C@@H]5CC[C@]43C)[C@@H]12` [Compound 21, (1R,3R)-2,2-dimethyl-3-(2-oxo-2-(((1R,3aS,5aR,5bR,7aR,9S,11aR,11bR,13aR,13bR)-5a,5b,8,8,11a-pentamethyl-3a-((S)-2-(5-phenyl-1H-imidazol-2-yl)pyrrolidine-1-carbonyl)-1-(prop-1-en-2-yl)icosahydro-1H-cyclopenta[a]chrysen-9-yl)oxy)ethyl)cyclo butane-1-carboxylic acid], in series [1], the IC50 was 1.29 nM. Moreover, in series [2], the AUC(0-t) was determined as 269 µg·h/mL and the Cmax came to 13 µg/mL.
As for `C=C(C)[C@@H]1CC[C@]2(C(=O)N3CCC[C@H]3c3ncc(-c4ccccc4)[nH]3)CC[C@]3(C)[C@H](CC[C@@H]4[C@@]5(C)CC[C@H](OC(=O)c6ccc(OC(C)(C)C(=O)O)cc6)C(C)(C)[C@@H]5CC[C@]43C)[C@@H]12` [Compound 23, 2-methyl-2-(4-((((1R,3aS,5aR,5bR,7aR,9S,11aR,11bR,13aR,13bR)-5a,5b,8,8,11a-pentamethyl-3a-((S)-2-(5-phenyl-1H-imidazol-2-yl)pyrrolidine-1-carbonyl)-1-(prop-1-en-2-yl)icosahydro-1H-cyclopenta[a]chrysen-9-yl)oxy)carbonyl)phenoxy)propanoic acid], the IC50 in series [1] is 0.7 nM. Also, in series [2], the AUC(0-t) turned out to be 302 µg·h/mL and the Cmax was 10.6 µg/mL.
Take `C=C(C)[C@@H]1CC[C@]2(C(=O)N3CCC[C@H]3c3nnc(-c4ccccc4)[nH]3)CC[C@]3(C)[C@H](CC[C@@H]4[C@@]5(C)CC[C@H](OC(=O)[C@H]6C[C@@H](C(=O)O)C6(C)C)C(C)(C)[C@@H]5CC[C@]43C)[C@@H]12` [Compound 24, (1R,3S)-2,2-dimethyl-3-((((1R,3aS,5aR,5bR,7aR,9S,11aR,11bR,13aR,13bR)-5a,5b,8,8,11a-pentamethyl-3a-((S)-2-(5-phenyl-4H-1,2,4-triazol-3-yl)pyrrolidine-1-carbonyl)-1-(prop-1-en-2-yl)icosahydro-1H-cyclopenta[a]chrysen-9-yl)oxy)carbonyl)cyclobutane-1-carboxylic acid]: the IC50 in series [1] was 9.06 nM. In addition, in series [2], the AUC(0-t) came out at 439 µg·h/mL and the Cmax was determined as 12.2 µg/mL.
